US20190152986A1, “CRYSTAL FORM A OF MILBEMYCIN A3 OXIME AND PREPARATION METHOD THEREOF” (Zhejiang Hisun Pharmaceutical Co., Ltd., priority 2016, published 2019)

Key:
Assay type in all cases: physicochemical
[1] = Degradation stability test: original sample and overall comparison (HPLC content determination)
Description: Meanwhile, the degradation stabilities of A3/A4 oxime and the crystal form A of A3 oxime were compared in the invention, and the degradation conditions are as follows:
(§1) The HPLC conditions for content determination are as follows: […]

[2] = Protection from light (black PE bag and aluminum foil bag in light box, 18 hrs)
Protocol: About 600 mg of the sample was weighed, placed evenly in a weighing bottle, the weighing bottle containing the sample was put into a black PE bag, and then the PE bag was packaged with an aluminum foil bag, the aluminum foil bag was placed into a light box with an illuminance of 600 w/m^2. After illumination of 18 hrs, taken out, placed into a desiccator and cooled to room temperature, and the weight loss on drying was measured.
as §1

[3] = Oxidative degradation (30% hydrogen peroxide, 24 hours)
Protocol: 1) Oxidative Degradation A sample of 50 mg was weighed accurately and added to a 100.0 ml volumetric flask, dissolved by adding 10 ml methanol, 1.0 ml of 30% hydrogen peroxide was added, standing for 24 hours, then was diluted to the scale with methanol.
as §1

[4] = Photodegradation (light box, 600 w/m^2, 24 hrs)
Protocol: According to the ICH requirement, the total illuminance requirement of 200 w·hr/m^2 and 1,200,000 lux·hr is required for photodegradation. If the illuminance is 600 w/m^2, the ICH requirement is met, and the illumination time needs at least 9 hrs.
Approximately 600 mg of the sample was weighed, placed evenly in a weighing bottle, placed into a light box with an illuminance of 600 w/m^2 and illuminated for 24 hrs, taken out, placed into a desiccator and cooled to room temperature, and the weight loss on drying was measured.
as §1

[5] = Protection from light: PE bag and aluminum foil bag, light box 600 w/m^2, 18 hrs
[6] = Oxidation: 30% hydrogen peroxide in methanol, standing for 24 hours
[7] = Illumination: 600 w/m^2 for 24 hrs

Content ([1]; Original sample, HPLC): 98.1%
Total Impurity ([1]; Original sample, HPLC): 0.3215%
Total Impurity increment ([2]; Protection from light, versus original sample): 0.0156%
Content [2, 5]: 96.9%
Total Impurity [2, 5]: 0.3371%
Total Impurity increment ([3]; Oxidation, versus original sample): −0.0847%
Content [3, 6]: 98.3%
Total Impurity [3, 6]: 0.2368%
Total Impurity increment ([4]; Illumination, versus original sample): 1.2485%
Content [4, 7]: 96.8%
Total Impurity [4, 7]: 1.57%
SMILES: CC1=C[C@H]2C(=O)O[C@H]3C[C@@H](C/C=C(\C)C[C@@H](C)/C=C/C=C4\CO[C@H](/C1=N\O)[C@@]42O)O[C@@]1(CC[C@H](C)[C@@H](C)O1)C3 [crystal form A of A3 oxime, Milbemycin A3 oxime]
stability (degradation stability test results) ([1]; overall comparison of Table 2): significantly better than that of A3/A4 oxime
